One series concerns the target T1, 5-HT2C receptor (Homo sapiens, UniProt P28335).
T1 construct: host or cells: U2OS
The series can be described thus: Human 5-HT2C functional assay (beta-arrestin2 recruitment, U2OS_HTR2C_β-Arrestin cells). Format: cell-based. The note with it: for pEC50: Potency (EC50 5-HT2C) in functional assay, agonism, read-out: EC50 5-HT2C; for Emax: relative efficacy vs maximal effect induced by 5-HT (defined as 100%). In outline: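 U2OS cells expressing human 5-HT2C with β-arrestin2 enzyme-fragment complementation; switched to 1% serum medium 24 h after plating, compounds added next day for 1.5 h. β-Galactosidase activity read by chemiluminescence; response expressed as percent of 10 μM 5-HT or maximal 5-HT effect (relative efficacy).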

The next series has as its target T2, human 5-HT2A receptor (Homo sapiens, UniProt P28223).
T2 construct: expressed in transfected cells; host or cells: CHO-K1
Put plainly: Human 5-HT2A functional assay (calcium mobilisation in CHO-K1 cells, FLIPR). Format: cell-based. The note with it: based on agonism: EC50 5-HT2A/EC50 5-HT2C. In outline: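 CHO-K1 cells stably expressing human 5-HT2A, serum-starved overnight and loaded with calcium dye plus 0.07% probenecid, were given compound (10^−10 to 10^−5 M) for agonism, then serotonin at 3×10^−8 M after 8 min for antagonism. FLIPR calcium responses were normalised to serotonin maximum, and EC50/IC50 came from four-parameter fits, with Kb via Cheng–Prusoff.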

The next series concerns the target T3, human 5-HT2B receptor (Homo sapiens, UniProt P41595).
T3 construct: expressed in transfected cells; host or cells: CHO-FlpIn
Put plainly: Human 5-HT2B functional assay (calcium mobilisation in CHO-FlpIn cells, FLIPR). The class given is cell-based. The note with it: based on agonism: EC50 5-HT2B/EC50 5-HT2C. In outline:
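CHO-FlpIn cells stably expressing human 5-HT2B, serum-starved 4 h and Ca5 dye-loaded, received compound (10^−10 to 10^−5 M) for agonism, then 10^−8 M serotonin after 8 min for antagonism; peak calcium read by FLIPR. Efficacy as % serotonin maximum; EC50/IC50 from four-parameter fits, Kb via Cheng–Prusoff.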

The nature of series [1]: Metabolic stability in human liver microsomes, unbound intrinsic clearance. The class given is in vitro ADME. The note with it: liver microsomes, pH 7.4; unbound intrinsic clearance (human); Clint unbound = Cl int/fu mic; read-out: Cl int, mic unb. (h). In outline: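 Compound at 0.5 μM incubated with human liver microsomes (0.25 mg/mL) in 0.05 M potassium phosphate pH 7.4 at 37° C, started with 1.0 mM NADPH; sampled 0–30 min, parent quantified by LC-MS/MS. First-order t1/2 gives CLint (uL/min/mg), scaled to L/h/kg; unbound CLint = CLint/fu mic.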

pEC50: −log10 of the molar value.

T1 sequence (P28335 33-458): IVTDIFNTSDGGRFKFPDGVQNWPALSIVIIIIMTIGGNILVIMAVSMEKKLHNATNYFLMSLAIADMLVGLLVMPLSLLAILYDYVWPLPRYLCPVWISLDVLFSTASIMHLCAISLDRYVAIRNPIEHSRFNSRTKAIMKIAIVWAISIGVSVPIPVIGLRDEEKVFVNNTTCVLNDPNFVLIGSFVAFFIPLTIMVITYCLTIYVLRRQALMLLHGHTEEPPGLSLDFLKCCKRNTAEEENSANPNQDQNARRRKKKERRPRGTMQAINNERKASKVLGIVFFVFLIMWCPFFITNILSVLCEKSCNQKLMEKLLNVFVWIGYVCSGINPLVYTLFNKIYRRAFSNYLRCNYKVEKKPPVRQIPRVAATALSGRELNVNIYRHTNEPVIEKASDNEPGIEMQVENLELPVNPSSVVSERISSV
T1 sequence (P32121 whole entry partner): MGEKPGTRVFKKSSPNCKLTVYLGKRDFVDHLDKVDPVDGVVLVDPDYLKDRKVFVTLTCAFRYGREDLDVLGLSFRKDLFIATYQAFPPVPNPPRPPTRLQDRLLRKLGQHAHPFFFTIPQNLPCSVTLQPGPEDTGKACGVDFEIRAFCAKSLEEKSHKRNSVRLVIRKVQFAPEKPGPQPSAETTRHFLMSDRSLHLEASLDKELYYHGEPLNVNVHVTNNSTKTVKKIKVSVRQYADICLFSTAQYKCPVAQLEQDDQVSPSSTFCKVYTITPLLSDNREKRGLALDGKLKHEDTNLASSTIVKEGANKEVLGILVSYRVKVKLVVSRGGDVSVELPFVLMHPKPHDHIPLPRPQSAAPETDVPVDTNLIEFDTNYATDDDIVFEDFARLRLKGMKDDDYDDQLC
T2 sequence (P28223 whole entry): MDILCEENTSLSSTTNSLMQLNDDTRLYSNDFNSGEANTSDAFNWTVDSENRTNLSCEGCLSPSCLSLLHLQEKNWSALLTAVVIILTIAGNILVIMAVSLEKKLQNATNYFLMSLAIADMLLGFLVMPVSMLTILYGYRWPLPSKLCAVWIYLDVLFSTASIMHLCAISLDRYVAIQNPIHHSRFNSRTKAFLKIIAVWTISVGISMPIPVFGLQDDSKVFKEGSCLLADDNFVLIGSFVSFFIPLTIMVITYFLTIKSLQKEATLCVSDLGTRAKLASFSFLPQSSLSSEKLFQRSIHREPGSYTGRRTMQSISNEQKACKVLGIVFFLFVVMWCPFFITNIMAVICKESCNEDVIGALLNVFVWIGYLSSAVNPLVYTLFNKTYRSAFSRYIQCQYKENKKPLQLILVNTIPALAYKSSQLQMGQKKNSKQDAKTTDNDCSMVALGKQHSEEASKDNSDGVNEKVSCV
T3 sequence (P41595 whole entry): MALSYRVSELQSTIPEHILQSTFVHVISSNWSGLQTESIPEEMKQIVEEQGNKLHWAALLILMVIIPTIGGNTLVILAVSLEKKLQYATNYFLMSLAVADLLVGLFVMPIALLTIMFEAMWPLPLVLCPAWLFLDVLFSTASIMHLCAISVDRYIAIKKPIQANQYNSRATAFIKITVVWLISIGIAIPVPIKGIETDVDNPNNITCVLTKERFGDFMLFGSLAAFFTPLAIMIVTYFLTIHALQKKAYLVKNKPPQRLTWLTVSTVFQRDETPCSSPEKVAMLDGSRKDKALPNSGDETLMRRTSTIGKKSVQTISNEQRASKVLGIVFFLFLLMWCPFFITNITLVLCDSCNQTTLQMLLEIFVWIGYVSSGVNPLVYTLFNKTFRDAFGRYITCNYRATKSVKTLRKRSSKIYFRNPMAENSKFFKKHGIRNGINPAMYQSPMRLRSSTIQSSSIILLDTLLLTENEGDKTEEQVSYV

Consider `COC[C@@H]1C[C@@H]2CNCCN2c2c(F)c(F)c(OC)c(Cl)c2O1.Cl` [Example 53, (4aR,6S)-8-Chloro-10,11-difluoro-9-methoxy-6-(methoxymethyl)-2,3,4,4a,5,6-hexahydro-1H-pyrazino[2,1-d][1,5]benzoxazepine hydrochloride], for which, at 5-HT2C receptor, the pEC50 is 6.70 to 7.70 and the maximum response (Emax) lay in the range of 50 to 70%. Moreover, the “Selectivity over 5-HT2A” value on human 5-HT2A receptor is given as “+++ (>100)”. In addition, the “Selectivity over 5-HT2B” value on human 5-HT2B receptor was “+++ (>100)”. Also, the CLint scaled at 0.5 μM in series [1] fell in the range of 83.3 to 833 mL/min/kg.
Regarding `COC[C@@H]1C[C@@H]2CNCCN2c2c(F)cccc2O1.Cl` [Example 54, (4aR,6S)-11-Fluoro-6-(methoxymethyl)-2,3,4,4a,5,6-hexahydro-1H-pyrazino[2,1-d][1,5]benzoxazepine hydrochloride], on 5-HT2C receptor, the negative logarithm of the EC50 (pEC50) was 6.00 to 6.70 and the maximal effect (Emax) fell in the range of 30 to 50%. Besides, the “Selectivity over 5-HT2A” value at human 5-HT2A receptor was “+ (from 10 to 30)”. On human 5-HT2B receptor, the “Selectivity over 5-HT2B” value is recorded as “+ (from 10 to 30)”. Further, the CLint scaled at 0.5 μM in series [1] is below 83.3 mL/min/kg.
As for `COC[C@@H]1C[C@@H]2CNCCN2c2c(F)c(F)cc(C(F)(F)F)c2O1.Cl` [Example 56, (4aR,6S)-10,11-Difluoro-6-(methoxymethyl)-8-(trifluoromethyl)-2,3,4,4a,5,6-hexahydro-1H-benzo[b]pyrazino[1,2-d][1,4]oxazepine hydrochloride], on 5-HT2C receptor, the pEC50 is 6.70 to 7.70 and the Emax was above 70%. The “Selectivity over 5-HT2A” value on human 5-HT2A receptor is on record as “+++ (>100)”. The “Selectivity over 5-HT2B” value at human 5-HT2B receptor is recorded as “+++ (>100)”. For the same molecule, the CLint scaled at 0.5 μM in series [1] is below 83.3 mL/min/kg.

For the origin of these results see patent publication US20200002354A1, “HEXAHYDROPYRAZINOBENZ- OR -PYRIDO-OXAZEPINES CARRYING AN OXYGEN-CONTAINING SUBSTITUENT AND USE THEREOF IN THE TREATMENT OF 5-HT2C-DEPENDENT DISORDERS” (AbbVie Deutschland GmbH & Co. KG, priority 2015, published 2020).
